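Each compound was tested at five concentrations against cells in 96-well plates for 48 hours. Here, GI50 denotes the concentration required for 50% inhibition of growth. Definition used: TGI = concentration required for complete inhibition of growth.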
How the values were obtained:
Experiment in all cases: NCI-60 cell line screen, 48 h
NCI-H226 lung = tested on: NCI-H226 lung
COLO 205 colon = tested on: COLO 205 colon
A498 renal = tested on: A498 renal
HCC-2998 colon = tested on: HCC-2998 colon
CAKI-1 renal = tested on: CAKI-1 renal
MDA-MB-231 breast = tested on: MDA-MB-231 breast
SNB-19 CNS = tested on: SNB-19 CNS
SW-620 colon = tested on: SW-620 colon
NCI/ADR-RES ovarian = tested on: NCI/ADR-RES ovarian
OVCAR-3 ovarian = tested on: OVCAR-3 ovarian

Row | SMILES | TGI (NCI-H226 lung) [µM] | TGI (COLO 205 colon) [µM] | TGI (A498 renal) [µM] | TGI (HCC-2998 colon) [µM] | TGI (CAKI-1 renal) [µM] | TGI (MDA-MB-231 breast) [µM] | TGI (SNB-19 CNS) [µM] | TGI (SW-620 colon) [µM] | TGI (NCI/ADR-RES ovarian) [µM] | TGI (OVCAR-3 ovarian) [µM] | GI50 (NCI-H226 lung) [µM] | GI50 (COLO 205 colon) [µM] | GI50 (A498 renal) [µM] | GI50 (HCC-2998 colon) [µM] | GI50 (CAKI-1 renal) [µM] | GI50 (MDA-MB-231 breast) [µM] | GI50 (SNB-19 CNS) [µM] | GI50 (SW-620 colon) [µM] | GI50 (NCI/ADR-RES ovarian) [µM] | GI50 (OVCAR-3 ovarian) [µM]
1 | C[C@H]1CC[C@H]([C@@H](C)[C@H]2[C@@H](O)C[C@H]3[C@@H]4CC[C@H]5C[C@@H](O)CC[C@]5(C)[C@H]4CC[C@]23C)NC1 | 39.5 | 45.7 | 32.1 | 35.5 | 34.3 | 47.9 | 50.2 | 41.9 | 32.6 | 39.8 |  |  |  |  |  |  |  |  |  | 
2 | COc1cccc(Cn2c(-c3nonc3N)nc3ccccc32)c1 | > 22 | 10.1 | 0.696 | > 100 | > 100 | > 100 | > 100 | > 100 |  | 3.62 | 1.16 | 0.393 | 0.0532 | 1.47 | 0.404 | 0.879 | 0.907 | 0.372 | 0.396 | 0.354
3 | CN[C@@H](C)C(=O)N[C@H]1CN(C(=O)CC(C)C)CC[C@H]2CC[C@@H](C(=O)NC(c3ccccc3)c3ccccc3)N2C1=O | > 100 | > 100 | > 100 | > 100 | > 100 | 5.7 | > 100 | > 100 | > 100 | > 100 | > 100 | > 79.8 | > 42.7 | > 100 | > 100 | 0.642 | > 100 | > 100 | > 100 | > 89.7
4 | COC(=O)[C@H]1C(=O)[C@@]2(C)[C@H]([C@H](OC(=O)c3ccccc3)[C@]3(O)C[C@H](OC(=O)[C@H](O)[C@@H](NC(=O)c4ccc(F)cc4)c4ccccc4)C(C)=C1C3(C)C)[C@]1(OC(C)=O)CO[C@@H]1C[C@@H]2O | > 25 | 0.0565 |  | > 9.55 | > 16.3 | > 14.4 | > 25 | > 25 | > 25 | 0.0222 | 0.612 | 0.00709 | 0.0315 | 0.00909 | 0.12 | 0.0414 | 0.0166 | 0.00821 | 4.61 | 0.00722
5 | C#CCSc1n[nH]c(-c2ccco2)n1 | > 100 | > 100 | > 100 | > 100 | > 100 | > 100 | > 100 | > 100 | > 100 | > 100 |  |  |  |  |  |  |  |  |  | 
6 | COC(=O)[C@@]1(Cc2ccccc2)[C@H]2c3cc(C(=O)N4CCCC4)n(Cc4ccc(OC)c(OC)c4)c3C[C@H]2CN1C(=O)c1ccccc1 | 19.3 | 12.4 | 19.2 | 15.8 | > 50 | 21.4 | > 50 | 13.4 | 35.4 | 21 | 9.78 | 5.83 | 10.4 | 8.86 | 14 | 8.17 | 17.4 | 6.92 | 11.4 | 9.03
7 | COc1ccc(-c2nsc3c2NC(=O)CC3c2ccc(F)cc2)cc1 (centres undefined) | > 100 | 8.39 | > 100 | > 100 | 18.4 | > 100 | > 100 | > 100 | > 26.9 | > 100 | 8.67 | 2.49 | 2.37 | > 21.7 | 2.28 | 6.68 | 7.75 | 2.77 | 2.57 | 3.79
8 | C[C@@H](N)C1CCC(C(=O)Nc2ccncc2)CC1 (some centres undefined) | > 100 | > 100 | > 100 | > 100 | > 100 | > 100 | > 100 | > 100 | > 100 | > 100 | > 100 | > 100 | > 100 | > 100 | > 40.4 | > 100 | > 100 | > 100 | > 100 | > 100
9 | Fc1ccc(-c2nn3c(CNc4ccccc4)nnc3s2)cc1 | > 100 | > 100 | > 100 | 25 | 49.2 | > 100 | > 100 | > 100 | 53.6 | 49.1 | 45.5 | 11.2 | 37 | 0.585 | 19.4 | 27.9 | 33.6 | 40.6 | 13.6 | 12.2
10 | CO/[N+]([O-])=C\C(=O)N/C=C/C(=O)O | > 100 | > 100 | > 100 | > 100 | > 100 | > 100 | > 100 | > 100 | > 100 | > 100 |  |  |  |  |  |  |  |  |  | 
11 | C=CC(=O)N1C/C(=C\c2ccccc2)C(=O)/C(=C/c2ccccc2)C1 | 10.6 | 3.87 | 4.03 | 3.67 | 6.88 | 4.55 | 7.12 | 0.831 | > 27.1 | 4.47 |  |  |  |  |  |  |  | 0.534 |  | 
12 | O=C(CSc1nc2ccccc2nc1-c1ccccc1)Nc1ccc(Cl)cc1 | 51.1 | > 100 | > 100 | > 100 | 38.1 | > 100 | > 100 | > 100 | 91.5 | 40.3 | 16.7 | > 100 | 31.4 | 46.4 | 12.5 | 30.5 | 35.9 | 38.9 | 24.9 | 13.1

— PubChem BioAssay (NCI)
